What was measured:
[1] = biological target: Delta-type opioid receptor (Homo sapiens, UniProt P41143)
Histamine H1 receptor = Histamine H1 receptor (Homo sapiens, UniProt P35367)
[2] = biological target: Kappa-type opioid receptor (Homo sapiens, UniProt P41145)
Histamine H3 receptor = Histamine H3 receptor (Homo sapiens, UniProt Q9Y5N1)
[3] = biological target: Beta-1 adrenergic receptor (Homo sapiens, UniProt P08588); type: functional
Endothelin-1 receptor = biological target: T1, Endothelin-1 receptor (Homo sapiens, UniProt P25101)
T1 sequence (P25101 whole entry): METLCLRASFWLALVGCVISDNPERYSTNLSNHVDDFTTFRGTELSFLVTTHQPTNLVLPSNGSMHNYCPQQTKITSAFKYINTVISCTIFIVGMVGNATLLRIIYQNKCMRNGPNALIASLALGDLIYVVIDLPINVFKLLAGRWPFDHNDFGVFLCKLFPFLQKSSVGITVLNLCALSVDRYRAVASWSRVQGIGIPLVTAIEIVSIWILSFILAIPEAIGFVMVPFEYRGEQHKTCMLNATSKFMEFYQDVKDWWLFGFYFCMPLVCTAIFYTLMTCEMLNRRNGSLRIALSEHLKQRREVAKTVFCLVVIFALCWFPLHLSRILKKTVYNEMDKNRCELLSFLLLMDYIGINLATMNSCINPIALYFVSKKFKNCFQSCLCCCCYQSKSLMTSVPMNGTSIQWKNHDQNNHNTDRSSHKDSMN

[4] = biological target: T2, 5-hydroxytryptamine receptor 1A (Homo sapiens, UniProt P08908); type: functional, cell-based
T2 sequence (P08908 whole entry): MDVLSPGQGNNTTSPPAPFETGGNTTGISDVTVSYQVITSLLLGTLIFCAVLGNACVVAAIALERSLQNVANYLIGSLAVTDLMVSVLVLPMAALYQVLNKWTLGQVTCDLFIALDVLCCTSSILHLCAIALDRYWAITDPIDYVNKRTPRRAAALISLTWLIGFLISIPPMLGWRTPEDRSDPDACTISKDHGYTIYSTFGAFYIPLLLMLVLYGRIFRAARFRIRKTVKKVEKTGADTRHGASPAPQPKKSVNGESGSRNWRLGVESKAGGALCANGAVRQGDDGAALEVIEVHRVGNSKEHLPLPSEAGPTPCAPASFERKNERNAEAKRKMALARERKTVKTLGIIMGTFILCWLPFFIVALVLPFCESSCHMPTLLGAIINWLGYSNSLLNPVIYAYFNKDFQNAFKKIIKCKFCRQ

[5] = biological target: T3, Muscarinic acetylcholine receptor M2 (Homo sapiens, UniProt P08172); type: functional, cell-based
T3 sequence (P08172 whole entry): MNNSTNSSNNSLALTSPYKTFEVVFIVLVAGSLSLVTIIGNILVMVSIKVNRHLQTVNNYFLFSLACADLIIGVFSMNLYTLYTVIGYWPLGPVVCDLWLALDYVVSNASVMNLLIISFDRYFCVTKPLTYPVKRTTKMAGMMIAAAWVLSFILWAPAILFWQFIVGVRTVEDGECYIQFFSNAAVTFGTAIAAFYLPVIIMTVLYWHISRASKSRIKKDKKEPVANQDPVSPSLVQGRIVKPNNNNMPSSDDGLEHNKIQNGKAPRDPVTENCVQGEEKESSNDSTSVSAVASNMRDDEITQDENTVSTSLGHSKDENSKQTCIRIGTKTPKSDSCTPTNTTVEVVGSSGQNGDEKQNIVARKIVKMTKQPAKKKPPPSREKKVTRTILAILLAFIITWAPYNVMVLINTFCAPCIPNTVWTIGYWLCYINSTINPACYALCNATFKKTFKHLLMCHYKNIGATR

[6] = biological target: 5-hydroxytryptamine receptor 2B (Homo sapiens, UniProt P41595); type: functional, cell-based
Chain of 5-hydroxytryptamine receptor 2B (P41595 whole entry): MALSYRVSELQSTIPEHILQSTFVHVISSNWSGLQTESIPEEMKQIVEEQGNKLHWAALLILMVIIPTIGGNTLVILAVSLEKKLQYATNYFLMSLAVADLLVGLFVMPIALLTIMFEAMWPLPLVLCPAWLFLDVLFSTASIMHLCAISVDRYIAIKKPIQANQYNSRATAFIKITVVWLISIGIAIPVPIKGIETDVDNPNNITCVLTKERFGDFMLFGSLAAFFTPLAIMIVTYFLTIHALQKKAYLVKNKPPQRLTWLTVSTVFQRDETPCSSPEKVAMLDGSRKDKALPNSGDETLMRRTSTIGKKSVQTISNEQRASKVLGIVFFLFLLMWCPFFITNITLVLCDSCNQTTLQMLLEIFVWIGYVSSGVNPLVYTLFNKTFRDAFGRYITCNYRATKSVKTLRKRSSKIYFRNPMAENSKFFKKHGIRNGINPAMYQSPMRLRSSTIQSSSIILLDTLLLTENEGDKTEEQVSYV

[7] = biological target: Glutamate receptor ionotropic, NMDA 1 (Rattus norvegicus, UniProt P35439)
[8] = biological target: T4, Alpha-2B adrenergic receptor (Homo sapiens, UniProt P18089)
T4 sequence (P18089 whole entry): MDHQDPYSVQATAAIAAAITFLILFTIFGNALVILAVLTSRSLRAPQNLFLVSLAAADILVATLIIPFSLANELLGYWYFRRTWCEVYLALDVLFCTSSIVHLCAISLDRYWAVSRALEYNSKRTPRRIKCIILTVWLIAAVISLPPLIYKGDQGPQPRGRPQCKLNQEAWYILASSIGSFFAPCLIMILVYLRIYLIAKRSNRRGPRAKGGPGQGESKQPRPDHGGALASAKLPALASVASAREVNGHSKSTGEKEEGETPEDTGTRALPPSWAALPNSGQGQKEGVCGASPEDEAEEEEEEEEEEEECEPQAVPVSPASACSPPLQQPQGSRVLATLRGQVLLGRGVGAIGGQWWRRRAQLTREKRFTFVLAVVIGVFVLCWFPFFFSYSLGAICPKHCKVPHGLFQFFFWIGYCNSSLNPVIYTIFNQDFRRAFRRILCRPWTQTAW

[9] = biological target: T5, Alpha-1A adrenergic receptor (Homo sapiens, UniProt P35348); type: functional, cell-based
T5 sequence (P35348 whole entry): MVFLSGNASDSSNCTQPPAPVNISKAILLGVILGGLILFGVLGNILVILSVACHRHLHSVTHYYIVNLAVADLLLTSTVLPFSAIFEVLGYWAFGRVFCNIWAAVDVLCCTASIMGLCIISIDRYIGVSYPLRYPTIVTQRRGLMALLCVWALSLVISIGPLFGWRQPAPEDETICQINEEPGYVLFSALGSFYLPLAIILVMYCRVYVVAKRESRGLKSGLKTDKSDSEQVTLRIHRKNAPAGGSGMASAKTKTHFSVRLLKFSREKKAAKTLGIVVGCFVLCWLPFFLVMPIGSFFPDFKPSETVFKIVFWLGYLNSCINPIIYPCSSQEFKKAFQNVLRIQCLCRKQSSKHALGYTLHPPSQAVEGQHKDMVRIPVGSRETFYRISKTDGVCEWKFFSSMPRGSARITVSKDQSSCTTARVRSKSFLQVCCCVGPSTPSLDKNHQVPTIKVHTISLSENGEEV

Cannabinoid receptor 1 = Cannabinoid receptor 1 (Homo sapiens, UniProt P21554); type: functional, cell-based
Chain of Cannabinoid receptor 1 (P21554 whole entry): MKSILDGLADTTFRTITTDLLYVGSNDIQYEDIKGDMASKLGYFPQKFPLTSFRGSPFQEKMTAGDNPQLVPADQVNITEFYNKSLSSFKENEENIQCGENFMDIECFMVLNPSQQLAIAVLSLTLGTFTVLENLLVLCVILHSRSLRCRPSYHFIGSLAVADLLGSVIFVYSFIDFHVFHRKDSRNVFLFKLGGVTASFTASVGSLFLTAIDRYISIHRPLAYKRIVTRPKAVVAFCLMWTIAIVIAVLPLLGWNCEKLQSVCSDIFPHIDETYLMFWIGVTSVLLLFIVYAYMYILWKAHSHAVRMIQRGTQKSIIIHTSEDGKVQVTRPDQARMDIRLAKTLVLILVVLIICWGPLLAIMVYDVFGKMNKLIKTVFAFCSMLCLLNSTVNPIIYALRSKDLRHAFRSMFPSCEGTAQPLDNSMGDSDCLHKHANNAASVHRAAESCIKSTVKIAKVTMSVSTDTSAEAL

[10] = biological target: 5-hydroxytryptamine receptor 2A (Homo sapiens, UniProt P28223); type: functional, cell-based
Chain of 5-hydroxytryptamine receptor 2A (P28223 whole entry): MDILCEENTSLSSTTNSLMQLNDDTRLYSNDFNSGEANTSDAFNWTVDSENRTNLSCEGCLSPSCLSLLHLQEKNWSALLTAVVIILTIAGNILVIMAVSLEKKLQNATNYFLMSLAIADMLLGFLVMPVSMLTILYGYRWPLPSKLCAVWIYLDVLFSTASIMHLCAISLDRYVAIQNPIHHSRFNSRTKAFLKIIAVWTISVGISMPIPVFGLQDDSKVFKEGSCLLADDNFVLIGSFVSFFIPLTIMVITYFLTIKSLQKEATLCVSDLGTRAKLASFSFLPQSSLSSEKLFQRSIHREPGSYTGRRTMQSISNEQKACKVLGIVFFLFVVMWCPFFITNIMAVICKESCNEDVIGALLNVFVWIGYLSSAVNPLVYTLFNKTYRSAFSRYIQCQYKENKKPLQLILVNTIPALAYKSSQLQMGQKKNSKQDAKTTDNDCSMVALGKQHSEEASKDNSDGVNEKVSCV
Further: assay procedure not described here.

Chain of Histamine H3 receptor (Q9Y5N1 whole entry): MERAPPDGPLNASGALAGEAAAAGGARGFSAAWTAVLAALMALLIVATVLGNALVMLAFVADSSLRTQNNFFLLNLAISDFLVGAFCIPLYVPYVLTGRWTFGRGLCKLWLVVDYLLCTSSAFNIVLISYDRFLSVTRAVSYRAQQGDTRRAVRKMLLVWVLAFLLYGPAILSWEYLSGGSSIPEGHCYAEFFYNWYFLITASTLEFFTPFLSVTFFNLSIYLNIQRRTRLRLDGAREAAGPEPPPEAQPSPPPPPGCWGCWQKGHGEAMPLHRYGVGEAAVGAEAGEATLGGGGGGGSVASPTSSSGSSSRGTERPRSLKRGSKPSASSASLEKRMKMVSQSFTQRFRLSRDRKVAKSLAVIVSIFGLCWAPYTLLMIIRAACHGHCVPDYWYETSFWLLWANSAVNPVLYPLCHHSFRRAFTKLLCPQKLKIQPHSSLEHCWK
Chain of Histamine H1 receptor (P35367 whole entry): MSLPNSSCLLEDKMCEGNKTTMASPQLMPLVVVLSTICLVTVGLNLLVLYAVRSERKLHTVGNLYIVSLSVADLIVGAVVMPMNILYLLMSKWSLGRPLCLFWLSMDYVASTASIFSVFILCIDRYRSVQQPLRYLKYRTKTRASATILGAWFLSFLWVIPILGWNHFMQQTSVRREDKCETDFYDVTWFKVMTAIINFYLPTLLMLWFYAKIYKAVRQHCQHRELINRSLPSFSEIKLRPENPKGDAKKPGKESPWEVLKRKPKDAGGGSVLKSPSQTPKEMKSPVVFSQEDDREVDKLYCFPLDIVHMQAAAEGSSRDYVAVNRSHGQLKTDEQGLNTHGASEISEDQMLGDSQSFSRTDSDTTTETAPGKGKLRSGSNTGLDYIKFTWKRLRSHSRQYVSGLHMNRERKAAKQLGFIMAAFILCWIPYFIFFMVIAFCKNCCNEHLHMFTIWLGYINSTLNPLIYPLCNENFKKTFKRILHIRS
Chain of Kappa-type opioid receptor (P41145 whole entry): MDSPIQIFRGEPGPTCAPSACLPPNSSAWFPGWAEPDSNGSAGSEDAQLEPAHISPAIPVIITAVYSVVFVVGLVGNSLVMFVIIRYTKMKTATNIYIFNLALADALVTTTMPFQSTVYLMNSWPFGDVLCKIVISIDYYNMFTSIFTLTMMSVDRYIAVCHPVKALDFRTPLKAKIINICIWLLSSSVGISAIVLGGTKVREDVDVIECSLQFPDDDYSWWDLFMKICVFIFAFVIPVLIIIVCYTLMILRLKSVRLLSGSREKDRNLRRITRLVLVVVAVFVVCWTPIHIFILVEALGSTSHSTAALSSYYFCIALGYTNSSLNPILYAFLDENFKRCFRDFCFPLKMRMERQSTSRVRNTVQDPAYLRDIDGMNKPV
Chain of Beta-1 adrenergic receptor (P08588 whole entry): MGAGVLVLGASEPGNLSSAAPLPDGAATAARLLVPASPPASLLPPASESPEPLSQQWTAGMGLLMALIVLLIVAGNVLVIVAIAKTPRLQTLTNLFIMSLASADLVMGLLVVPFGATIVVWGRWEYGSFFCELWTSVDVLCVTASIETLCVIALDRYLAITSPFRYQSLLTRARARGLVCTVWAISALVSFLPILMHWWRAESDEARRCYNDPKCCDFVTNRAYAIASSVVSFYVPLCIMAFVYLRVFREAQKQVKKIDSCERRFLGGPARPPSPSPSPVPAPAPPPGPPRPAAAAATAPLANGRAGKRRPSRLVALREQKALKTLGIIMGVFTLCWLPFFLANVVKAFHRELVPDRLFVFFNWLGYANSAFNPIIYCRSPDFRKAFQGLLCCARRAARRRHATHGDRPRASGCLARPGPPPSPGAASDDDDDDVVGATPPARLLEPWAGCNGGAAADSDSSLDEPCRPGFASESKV
Chain of Delta-type opioid receptor (P41143 whole entry): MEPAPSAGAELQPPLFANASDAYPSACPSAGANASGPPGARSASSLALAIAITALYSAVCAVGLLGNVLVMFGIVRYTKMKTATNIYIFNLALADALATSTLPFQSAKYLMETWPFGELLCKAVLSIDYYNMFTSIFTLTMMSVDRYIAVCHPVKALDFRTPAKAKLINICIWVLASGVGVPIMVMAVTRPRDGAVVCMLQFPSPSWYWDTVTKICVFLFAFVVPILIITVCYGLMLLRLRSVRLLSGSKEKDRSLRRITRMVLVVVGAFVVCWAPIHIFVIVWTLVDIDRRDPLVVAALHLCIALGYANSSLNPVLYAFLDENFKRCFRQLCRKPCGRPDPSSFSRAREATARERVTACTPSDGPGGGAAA

| Structure (SMILES) | AC50 [1] [µM] | AC50 (Histamine H1 receptor) [µM] | AC50 [2] [µM] | AC50 (Histamine H3 receptor) [µM] | AC50 [3] [µM] | AC50 (Endothelin-1 receptor) [µM] | AC50 [4] [µM] | AC50 [5] [µM] | AC50 [6] [µM] | AC50 [7] [µM] | AC50 [8] [µM] | AC50 [9] [µM] | AC50 (Cannabinoid receptor 1) [µM] | AC50 [10] [µM] |
| --- | --- | --- | --- | --- | --- | --- | --- | --- | --- | --- | --- | --- | --- | --- |
| COc1ccc2cccc(CCNC(C)=O)c2c1 [AGOMELATINE] | > 30 | > 10 | > 10 | > 10 | > 10 | > 30 | > 30 | > 30 | > 30 | > 10 | > 10 | > 30 | > 30 | – |
| CC(=O)OCC(=O)[C@@]12OC3(CCCC3)O[C@@H]1C[C@H]1[C@@H]3CCC4=CC(=O)C=C[C@]4(C)[C@@]3(F)[C@@H](O)C[C@@]12C [AMCINONIDE] | > 30 | > 10 | > 10 | – | > 10 | – | > 10 | > 10 | > 10 | > 10 | > 10 | – | – | > 10 |
| CN1CCc2cccc3c2[C@H]1Cc1ccc(O)c(O)c1-3 [APOMORPHINE] | > 30 | 15 | 19.4 | > 10 | > 10 | > 30 | – | > 10 | > 10 | > 10 | – | 0.32 | > 30 | > 30 |
| CN1C(=O)CC(=O)N(c2ccccc2)c2cc(Cl)ccc21 [CLOBAZAM] | > 30 | > 10 | 14.1 | – | > 10 | – | > 10 | > 10 | > 10 | > 10 | > 10 | – | – | > 10 |
| CN[C@@H](C)[C@H](O)c1ccccc1 [EPHEDRINE] | > 30 | > 10 | > 10 | > 10 | > 10 | > 30 | > 10 | > 10 | > 10 | > 10 | > 10 | 13 | > 30 | – |
| C#CC1(OC(N)=O)CCCCC1 [ETHINAMATE] | > 30 | > 10 | > 10 | > 10 | > 10 | – | > 10 | > 10 | > 10 | > 10 | > 10 | – | – | > 10 |
| O=C(CCCCC(=O)Nc1c(I)cc(I)c(C(=O)O)c1I)Nc1c(I)cc(I)c(C(=O)O)c1I [IODIPAMIDE] | > 30 | > 10 | > 10 | – | > 10 | – | > 10 | > 10 | > 10 | > 10 | > 10 | – | – | > 10 |
| CC(C)[N+](C)(CCC(C(N)=O)(c1ccccc1)c1ccccc1)C(C)C [ISOPROPAMIDE] | > 30 | > 10 | > 10 | – | > 10 | – | > 10 | 0.01 | > 10 | > 10 | > 10 | – | – | > 10 |
| CN1CC[C@]23CCCC[C@H]2[C@H]1Cc1ccc(O)cc13 [LEVORPHANOL] | > 30 | > 30 | 5.85 | – | > 10 | – | > 10 | > 10 | > 10 | 0.652 | > 30 | – | – | > 10 |
| CC1=CC(=O)c2ccccc2C1=O [MENADIONE] | > 30 | > 30 | > 10 | – | > 10 | – | > 10 | > 10 | > 10 | > 10 | > 10 | – | – | > 10 |
| COc1c(C)c2c(c(O)c1C/C=C(\C)CCC(=O)OCCN1CCOCC1)C(=O)OC2 [MYCOPHENOLATE MOFETIL] | > 30 | – | > 30 | > 30 | > 30 | > 30 | > 30 | > 30 | > 30 | > 30 | – | > 30 | > 30 | – |
| CN1CCCN=C1COC(=O)C(O)(c1ccccc1)C1CCCCC1 (stereo unspecified) [OXYPHENCYCLIMINE] | > 30 | 0.99 | > 10 | – | > 10 | – | > 10 | 0.07 | > 10 | > 10 | > 10 | – | – | > 10 |
| CN1CCC2=C(C1)C(c1ccccc1)c1ccccc12 (stereo unspecified) [PHENINDAMINE] | > 30 | 8.1 | > 10 | – | > 10 | – | > 10 | > 10 | > 10 | > 10 | > 10 | – | – | > 10 |
| CCCOc1ccc(C(=O)OCCN(CC)CC)cc1N [PROPARACAINE] | > 30 | – | > 30 | 1.3 | > 30 | > 30 | > 30 | > 30 | > 30 | > 30 | – | > 30 | > 30 | – |
| C#CCN[C@@H]1CCc2ccccc21 [RASAGILINE] | > 30 | > 30 | > 30 | > 30 | > 30 | – | > 30 | > 30 | > 30 | > 30 | 8.79 | – | – | > 30 |
| Nc1nc2ccc(OC(F)(F)F)cc2s1 [RILUZOLE] | > 30 | – | > 30 | > 30 | > 30 | > 30 | > 30 | > 30 | > 30 | > 30 | – | > 30 | > 30 | – |
| Cc1c(C(=O)Nc2ccc(N3C[C@@H](C)O[C@@H](C)C3)nc2)cccc1-c1ccc(OC(F)(F)F)cc1 [SONIDEGIB] | > 10 | > 10 | > 10 | > 10 | > 10 | > 30 | – | – | – | > 10 | > 10 | – | – | – |

— ChEMBL document CHEMBL5291721, “A preclinical secondary pharmacology resource illuminates target-adverse drug reaction associations of marketed drugs” (Nat Commun, 2023)
